Laboratory results from patent US7005431B2, “Imidazo-triazine derivatives as ligands for gaba receptors” (Merck Sharp & Dohme Ltd., priority 2002, dated 2006).

melting point [°C] | SMILES
166 to 169 | CC(C)(F)c1cnn2c(-c3ccc(F)c(-c4ccc(F)cc4C#N)c3F)cnc2n1 [Example 3, 3′-[3-(1-Fluoro-1-methylethyl)imidazo[1,2-b][1,2,4]triazin-7-yl]-4,2′,6′-trifluorobiphenyl-2-carbonitrile]
177 to 179 | CC(C)(O)c1cnn2c(-c3ccc(F)c(-c4c(F)cccc4C#N)c3F)cnc2n1 [Example 2, 3′-[3-(1-Hydroxy-1-methylethyl)imidazo[1,2-b][1,2,4]triazin-7-yl]-6,2′,6′-trifluorobiphenyl-2-carbonitrile]
